SMILES strings stand for the structures.

What is called melting point is the temperature of the solid-liquid transition. Compound `CCS(=O)(=O)N(C(C)=O)c1cc(-n2nc(C(F)(F)F)n(C)c2=O)c(F)cc1C#N` had a melting point of 179 °C.

The record behind these values is patent US6350720B2, “Substituted phenyltriazolin(THI)ones and their use as herbicides” (Bayer Aktiengesellschaft, priority 1997, dated 2002).
